# According to patent publication US9139557B2, “Carboxamide compounds and their use as calpain inhibitors” (Abbott GmbH & Co. KG, priority 2006, dated 2015):
# Experiments:
# Type in all cases: biochemical
# cathepsin L = target: T1, cathepsin L (Homo sapiens, UniProt P07711); experiment: Cathepsin L enzyme inhibition in vitro (kinetic fluorescence assay); details: Ki(cathepsin L)/Ki(calpain) ratio
# T1 construct: cathepsin L—isolated from human liver; purchased Calbiochem 219402; host or cells: human liver (tissue isolate)
# Description: (§1) Testing for blockade of the corresponding enzymic activities was carried out by means of kinetic fluorescence assays (excitation 390 nm, emission 460 nm).
# (§2) Apparent Ki values were calculated from the experimentally determined IC50 values by the Cheng-Prussoff relation assuming a reversible competitive enzyme inhibition. The Km values of the substrates used under the assay conditions indicated above were: 90 μM (Z-Phe-Arg-AMC, cathepsin B), 10 μM (Z-Gly-Pro-Arg-AMC, cathepsin K), 2 μM (Z-Phe-Arg-AMC, cathepsin L), and 30 μM (Z-Val-Val-Arg-AMC, cathepsin S).
# (§3) The indicated Ki values are averages of the inhibition constants calculated on the basis of 2 to 4 independent dose-effect plots.
# (§4) • 1. Calpain I: • 20 nM calpain-I—isolated from human erythrocytes (Calbiochem #208713), 100 μM Suc-Leu-Tyr-AMC (Bachem #1-1355) as substrate in buffer with 62 mM imidazole, 0.3 mM CaCl2, 0.10% CHAPS, 0.05% BSA, 1 mM DTT at pH 7.3 and room temperature. • 2. Cathepsin B: • 0.25 nM cathepsin B—isolated from human liver (Calbiochem #219362), 100 μM Z-Phe-Arg-AMC (Bachem #1-1160) as substrate 50 mM MES, 2 mM EDTA, 0.05% Brij 35, 2.5 mM L-cysteine, pH 6.0, room temperature. • 3. Cathepsin K: • 3 nM cathepsin K—activated from recombinant human procathepsin K from E. coli (Calbiochem #342001), 10 μM Z-Gly-Pro-Arg-AMC (Biomol #P-142) as substrate in 50 mM MES, 2 mM EDTA, 0.05% Brij 35, 2.5 mM L-cysteine, pH 6.0, room temperature. • 4. Cathepsin L: • 1 nM cathepsin L—isolated from human liver (Calbiochem #219402), 2 μM Z-Phe-Arg-AMC (Bachem #1-1160) as substrate in 50 mM MES, 2 mM EDTA, 0.05% Brij 35, 2.5 mM L-cysteine, pH 6.0, room temperature. • 5. Cathepsin S: • 0.5 nM recombinant human cathepsin S from E. coli (Calbiochem #219343), 20 μM Z-Val-Val-Arg-AMC (Bachem #1-1540) as substrate in 50 mM MES, 2 mM EDTA, 0.05% Brij 35, 2.5 mM L-cysteine, pH 6.0, room temperature.
# cathepsin S = target: T2, cathepsin S (Homo sapiens, UniProt P25774); experiment: Cathepsin S enzyme inhibition in vitro (kinetic fluorescence assay); details: Ki(cathepsin S)/Ki(calpain) ratio
# T2 construct: purchased Calbiochem 219343; host or cells: E. coli
# Description: as §1, §2, §3, §4
# cathepsin B = target: T3, cathepsin B (Homo sapiens, UniProt P07858); experiment: Cathepsin B enzyme inhibition in vitro (kinetic fluorescence assay); details: Ki(cathepsin B)/Ki(calpain) ratio
# T3 construct: cathepsin B—isolated from human liver; purchased Calbiochem 219362; host or cells: human liver (tissue isolate)
# Description: as §1, §2, §3, §4
# T2 sequence (P25774 115-331): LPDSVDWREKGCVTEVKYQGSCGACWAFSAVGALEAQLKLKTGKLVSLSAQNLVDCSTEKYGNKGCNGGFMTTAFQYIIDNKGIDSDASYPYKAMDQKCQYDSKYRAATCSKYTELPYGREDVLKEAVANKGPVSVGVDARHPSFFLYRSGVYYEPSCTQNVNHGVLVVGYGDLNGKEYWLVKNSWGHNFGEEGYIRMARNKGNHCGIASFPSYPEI
# T1 sequence (P07711 114-333): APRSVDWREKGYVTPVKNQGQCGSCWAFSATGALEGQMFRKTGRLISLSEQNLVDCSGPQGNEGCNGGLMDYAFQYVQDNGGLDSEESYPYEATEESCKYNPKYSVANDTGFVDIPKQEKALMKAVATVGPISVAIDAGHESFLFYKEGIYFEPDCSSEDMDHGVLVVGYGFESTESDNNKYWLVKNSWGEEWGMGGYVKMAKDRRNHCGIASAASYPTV
SMILES,Sel cat. L (cathepsin L),Sel cat. S (cathepsin S),Sel cat. B (cathepsin B)
"NC(=O)C(=O)C(Cc1ccccc1)NC(=O)c1cccnc1-n1cc(COc2ccccc2)c(-c2ccc(F)cc2)n1 (stereo not drawn) [Example 179, N-[3-Amino-2,3-dioxo-1-(phenylmethyl)propyl]-2-{3-(4-fluorophenyl)-4-[(phenyloxy)methyl]-1H-pyrazol-1-yl}pyridine-3-carboxamide]",+ (+ means 30≦Ki(cathepsin L)/Ki(calpain)<50),++ (++ means a Ki(cathepsin S)/Ki(calpain) ratio of ≧100),
"CCCCC(NC(=O)c1cc(Cl)cnc1-n1ccc(-c2ccccc2)n1)C(=O)C(N)=O (stereo not drawn) [Example 28, N-{1-[Amino(oxo)acetyl]pentyl}-5-chloro-2-(3-phenyl-1H-pyrazol-1-yl)nicotinamide]",,,+ (+ means 10≦Ki(cathepsin B)/Ki(calpain)<30)
"CCCCC(NC(=O)c1cccnc1-n1cnc(-c2ccc(N3CCOCC3)cc2)c1)C(=O)C(N)=O.Cl (stereo not drawn) [Example 15, N-{1-[Amino(oxo)acetyl]pentyl}-2-[4-(4-morpholin-4-ylphenyl)-1H-imidazol-1-yl]nicotinamide hydrochloride]",++ (++ means a Ki(cathepsin L)/Ki(calpain) ratio of ≧50),+ (+ means 50≦Ki(cathepsin S)/Ki(calpain)<100),
"NC(=O)C(=O)C(Cc1ccccc1)NC(=O)c1cccnc1-n1ccc(-c2ccc(Cl)cc2)n1 (stereo not drawn) [Example 39, N-(3-Amino-1-benzyl-2,3-dioxopropyl)-2-[3-(4-chlorophenyl)-1H-pyrazol-1-yl]nicotinamide]",++ (++ means a Ki(cathepsin L)/Ki(calpain) ratio of ≧50),++ (++ means a Ki(cathepsin S)/Ki(calpain) ratio of ≧100),
"NC(=O)C(=O)C(Cc1ccccc1)NC(=O)c1cccnc1-n1cc2c(n1)-c1ccccc1OCC2 (stereo not drawn) [Example 141, N-[3-Amino-2,3-dioxo-1-(phenylmethyl)propyl]-2-(4,5-dihydro-2H-Mbenzoxepino[5,4-c]pyrazol-2-yl)pyridine-3-carboxamide]",++ (++ means a Ki(cathepsin L)/Ki(calpain) ratio of ≧50),++ (++ means a Ki(cathepsin S)/Ki(calpain) ratio of ≧100),
"NC(=O)C(=O)C(Cc1ccccc1)NC(=O)c1cccnc1-n1cnc(-c2ccc(Cl)cc2)c1 (stereo not drawn) [Example 9, N-(3-Amino-1-benzyl-2,3-dioxopropyl)-2-[4-(4-chlorophenyl)-1H-imidazol-1-yl]nicotinamide]",+ (+ means 30≦Ki(cathepsin L)/Ki(calpain)<50),++ (++ means a Ki(cathepsin S)/Ki(calpain) ratio of ≧100),
"NC(=O)C(=O)C(Cc1ccccc1)NC(=O)c1ccccc1-n1ccc(-c2ccccc2)n1 (stereo not drawn) [Example 106, N-[3-Amino-2,3-dioxo-1-(phenylmethyl)propyl]-2-(3-phenyl-1H-pyrazol-1-yl)benzamide]",+ (+ means 30≦Ki(cathepsin L)/Ki(calpain)<50),++ (++ means a Ki(cathepsin S)/Ki(calpain) ratio of ≧100),
"N#Cc1ccc(-c2ccn(-c3ncccc3C(=O)NC(Cc3ccccc3)C(=O)C(N)=O)n2)cc1 (stereo not drawn) [Example 62, N-(3-Amino-1-benzyl-2,3-dioxopropyl)-2-[3-(4-cyanophenyl)-1H-pyrazol-1-yl]nicotinamide]",++ (++ means a Ki(cathepsin L)/Ki(calpain) ratio of ≧50),++ (++ means a Ki(cathepsin S)/Ki(calpain) ratio of ≧100),
"COc1ccc(-c2cn(-c3ncccc3C(=O)NC(Cc3ccccc3)C(=O)C(N)=O)cn2)cc1 (stereo not drawn) [Example 13, N-(3-Amino-1-benzyl-2,3-dioxopropyl)-2-[4-(4-methoxyphenyl)-1H-imidazol-1-yl]nicotinamide]",++ (++ means a Ki(cathepsin L)/Ki(calpain) ratio of ≧50),+ (+ means 50≦Ki(cathepsin S)/Ki(calpain)<100),
"NC(=O)C(=O)C(Cc1ccccc1)NC(=O)c1cccnc1-n1ccc(-c2ccc(N3CCCCC3)cc2)n1 (stereo not drawn) [Example 64, N-(3-Amino-1-benzyl-2,3-dioxopropyl)-2-[3-(4-piperidin-1-ylphenyl)-1H-pyrazol-1-yl]nicotinamide]",,++ (++ means a Ki(cathepsin S)/Ki(calpain) ratio of ≧100),+ (+ means 10≦Ki(cathepsin B)/Ki(calpain)<30)
"CS(=O)(=O)NCc1cn(-c2ncccc2C(=O)NC(Cc2ccccc2)C(=O)C(N)=O)nc1-c1ccc(F)cc1 (stereo not drawn) [Example 187, N-[3-Amino-2,3-dioxo-1-(phenylmethyl)propyl]-2-[3-(4-fluorophenyl)-4-{[(methylsulfonyl)amino]methyl}-1H-pyrazol-1-yl]pyridine-3-carboxamide]",+ (+ means 30≦Ki(cathepsin L)/Ki(calpain)<50),++ (++ means a Ki(cathepsin S)/Ki(calpain) ratio of ≧100),
"CCCCC(NC(=O)c1cccnc1-n1ccc(-c2ccc(N3CCOCC3)cc2)n1)C(=O)C(N)=O (stereo not drawn) [Example 33, N-{1-[Amino(oxo)acetyl]pentyl}-2-[3-(4-morpholin-4-ylphenyl)-1H-pyrazol-1-yl]nicotinamide]",,+ (+ means 50≦Ki(cathepsin S)/Ki(calpain)<100),+ (+ means 10≦Ki(cathepsin B)/Ki(calpain)<30)
"CCCCC(NC(=O)c1cccnc1-n1ccc(-c2ccc(OC)cc2)n1)C(=O)C(N)=O (stereo not drawn) [Example 49, N-{1-[Amino(oxo)acetyl]pentyl}-2-[3-(4-methoxyphenyl)-1H-pyrazol-1-yl]nicotinamide]",+ (+ means 30≦Ki(cathepsin L)/Ki(calpain)<50),++ (++ means a Ki(cathepsin S)/Ki(calpain) ratio of ≧100),
"CC(C)CC(NC(=O)c1cc(Cl)cnc1-n1ccc(-c2ccccc2)n1)C(=O)C(N)=O (stereo not drawn) [Example 32, N-{1-[Amino(oxo)acetyl]-3-methylbutyl}-5-chloro-2-(3-phenyl-1H-pyrazol-1-yl)nicotinamide]",,,+ (+ means 10≦Ki(cathepsin B)/Ki(calpain)<30)
"CCCCC(NC(=O)c1cccnc1-n1ccc(-c2cccc(N3CCOCC3)c2)n1)C(=O)C(N)=O (stereo not drawn) [Example 59, N-{1-[Amino(oxo)acetyl]pentyl}-2-[3-(3-morpholin-4-ylphenyl)-1H-pyrazol-1-yl]nicotinamide]",++ (++ means a Ki(cathepsin L)/Ki(calpain) ratio of ≧50),+ (+ means 50≦Ki(cathepsin S)/Ki(calpain)<100),
"Cl.NC(=O)C(=O)C(Cc1ccccc1)NC(=O)c1cccnc1-n1cnc(-c2ccc(C(F)(F)F)cc2)c1 (stereo not drawn) [Example 18, N-(3-Amino-1-benzyl-2,3-dioxopropyl)-2-{4-[4-(trifluoromethyl)phenyl]-1H-imidazol-1-yl}nicotinamide hydrochloride]",+ (+ means 30≦Ki(cathepsin L)/Ki(calpain)<50),++ (++ means a Ki(cathepsin S)/Ki(calpain) ratio of ≧100),
"NC(=O)C(=O)C(Cc1cccs1)NC(=O)c1cccnc1-n1ccc(-c2ccc(F)cc2)n1 (stereo not drawn) [Example 57, N-[3-Amino-2,3-dioxo-1-(2-thienylmethyl)propyl]-2-[3-(4-fluorophenyl)-1H-pyrazol-1-yl]nicotinamide]",++ (++ means a Ki(cathepsin L)/Ki(calpain) ratio of ≧50),++ (++ means a Ki(cathepsin S)/Ki(calpain) ratio of ≧100),
"CCCCC(NC(=O)c1cccnc1-n1cnc(-c2ccc(C(F)(F)F)cc2)c1)C(=O)C(N)=O.Cl (stereo not drawn) [Example 17, N-{1-[Amino(oxo)acetyl]pentyl}-2-{4-[4-(trifluoromethyl)phenyl]-1H-imidazol-1-yl}nicotinamide hydrochloride]",++ (++ means a Ki(cathepsin L)/Ki(calpain) ratio of ≧50),+ (+ means 50≦Ki(cathepsin S)/Ki(calpain)<100),
"NC(=O)C(=O)C(Cc1ccccc1)NC(=O)c1cccnc1-n1cc2ccccc2n1 (stereo not drawn) [Example 78, N-(3-Amino-1-benzyl-2,3-dioxopropyl)-2-(2H-indazol-2-yl)nicotinamide]",++ (++ means a Ki(cathepsin L)/Ki(calpain) ratio of ≧50),+ (+ means 50≦Ki(cathepsin S)/Ki(calpain)<100),
